Columns and labels:
[1] = tested on: Helicoverpa armigera larvae; test: Glasshouse trial on geranium seedlings, racemic and isomeric C1 (Example 20); assay type: in vivo; conditions: Trial 1; 25 mM dose sprayed on geranium
[2] = tested on: Helicoverpa spp. larvae; test: Field trial, commercial cotton crop, Kununurra (Example 19); assay type: in vivo, Helicoverpa armigera; conditions: C1 plus EDTA 1.0 kg/ha each

| SMILES | Estimated leaf damage (%) at 7 DAA [1] [%] | Mean number of larvae/leaf at 7 DAA [1] | Mean number TLVA*/10 Terminals, 3 DAA ([2]; 3 days after application, C1 2.0 kg/ha, EDTA 2.0 kg/ha) | efficacy against Helicoverpa spp. infesting cotton (in words) ([2]; EDTA alone 2.0 kg/ha) | Mean number TLVA*/10 Terminals, −1 DAA ([2]; pre-application count, C1 2.0 kg/ha, EDTA 2.0 kg/ha) |
| --- | --- | --- | --- | --- | --- |
| CC(C)[C@H](NCP(=O)(O)O)C(=O)O [D-C1, N-phosphonomethyl valine] | 55 | 3.5 |  |  |  |
| O=C(O)CN(CCN(CC(=O)O)CC(=O)O)CC(=O)O [EDTA, ethylenediaminetetraacetic acid] |  |  | 6.0 | no apparent influence on larval survival | 0.0 |
| CC(C)[C@H](NCP(=O)(O)O)C(=O)O [L-C1, N-phosphonomethyl valine] | 35 | 2.3 |  |  |  |

From patent US7217831B2 (priority 2001, dated 2007)
